A short description of the series: Toxicity (mouse LD50). It is filed as in vivo.

As to `c1ccc(C2CN3CCSC3=N2)cc1` (stereo not shown) [levamisole, 2,3,5,6-tetrahydro-6-phenyl-imidazo[2,1-b]thiazole], the toxicity result is recorded as “devoid of toxicity”.

The values are drawn from patent US4584305A, “Aiding the regression of neoplastic disease with 2,3,5,6-tetrahydro-6-phenylimidazo[2,1-b]thiazole” (Janssen Pharmaceutica N.V., priority 1981, dated 1986).
